Test results taken from patent US8084479B2, “Thiazole compounds and methods of use” (Amgen Inc., priority 2006, dated 2011).

What follows are molecules tested against PKBα (Homo sapiens, UniProt P31749) (assay: PKB kinase assay (P33-labeled ATP, peptide substrate, filter plate)). Conditions: PKBα enzyme (full length or kinase domain with pleckstrin domain deleted).
Format: biochemical
Text: The kinase assay for evaluating PKB activity comprises active PKB enzymes, a PKB specific substrate, and P^33-labeled ATP. […] The phosphorylated substrate was captured by a phosphocellulose membrane filter plate (MLLIPORE) and measured by a Wallac Microbeta liquid scintillation counter (Perkin Elmer).

PKBα, sequence (P31749 118-480 limits assumed): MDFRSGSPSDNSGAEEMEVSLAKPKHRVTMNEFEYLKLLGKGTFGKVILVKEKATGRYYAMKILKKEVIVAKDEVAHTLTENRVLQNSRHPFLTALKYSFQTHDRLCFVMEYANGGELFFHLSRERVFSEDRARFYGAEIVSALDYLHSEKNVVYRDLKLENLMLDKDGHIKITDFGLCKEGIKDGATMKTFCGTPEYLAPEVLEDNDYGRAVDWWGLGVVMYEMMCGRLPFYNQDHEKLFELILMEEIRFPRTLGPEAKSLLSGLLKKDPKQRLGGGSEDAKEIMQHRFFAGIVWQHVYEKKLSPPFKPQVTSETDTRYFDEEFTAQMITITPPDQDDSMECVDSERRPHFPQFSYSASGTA

Compound | IC50 [nM]
COCc1nc(NC[C@@H](N)Cc2ccc(C(F)(F)F)cc2)sc1-c1nc2ccncc2s1 [Example 22, N—((S)-2-amino-3-(4-(trifluoromethyl)phenyl)propyl)-4-(methoxymethyl)-5-(thiazolo[5,4-c]pyridin-2-yl)thiazol-2-amine] | < 50
COCc1nc(NC[C@@H](N)Cc2c[nH]c3ccccc23)sc1-c1nc2ccncc2s1 [Example 27, N—((S)-2-amino-3-(1H-indol-3-yl)propyl)-4-(methoxymethyl)-5-(thiazolo[5,4-c]pyridin-2-yl)thiazol-2-amine] | 50 to 1000
C[C@H](Nc1ncc(-c2ccc3cnccc3c2)s1)[C@@H](N)Cc1ccc(C(F)(F)F)cc1 [Example 235, N-((2S,3S)-3-amino-4-(4-(trifluoromethyl)phenyl)butan-2-yl)-5-(isoquinolin-6-yl)thiazol-2-amine] | 50 to 1000
CC(O)C#Cc1nc(NC[C@@H](N)Cc2ccc(C(F)(F)F)cc2)sc1-c1ccc2cnccc2c1 (stereo partly drawn) [Example 141, 4-(2-((S)-2-amino-3-(4-(trifluoromethyl)phenyl)propylamino)-5-(isoquinolin-6-yl)thiazol-4-yl)but-3-yn-2-ol] | < 50
COc1cc(C[C@H](N)CNc2ncc(-c3ccc4c(c3)CC(=O)N4)s2)ccc1C(F)(F)F [Example 206, 5-(2-((S)-2-amino-3-(3-methoxy-4-(trifluoromethyl)phenyl)propylamino)thiazol-5-yl)indolin-2-one] | < 50
N[C@H](CNc1nc(CO)c(-c2ccc3[nH]ncc3c2)s1)Cc1ccc(C(F)(F)F)cc1 [Example 12, (2-((S)-2-amino-3-(4-(trifluoromethyl)phenyl)propylamino)-5-(1H-indazol-5-yl)thiazol-4-yl)methanol] | < 50
NC(CNc1ncc(-c2ccc3cnccc3c2)s1)Cc1ccc(OC(F)(F)F)cc1 (stereo not shown) [Example 189, N-(-2-amino-3-(4-(trifluoromethoxy)phenyl)propyl)-5-(isoquinolin-6-yl)thiazol-2-amine] | < 50
COc1ccc(C[C@H](N)CNc2ncc(-c3nc4ccncc4s3)s2)cc1 [Example 98, N—((S)-2-Amino-3-(4-methoxyphenyl)propyl)-5-(thiazolo[5,4-c]pyridin-2-yl)thiazol-2-amine] | 50 to 1000
N[C@H](CNc1nc(C(=O)N2CCCC2)c(-c2ccc3cnccc3c2)s1)Cc1ccc(C(F)(F)F)cc1 [Example 195, (2-((S)-2-amino-3-(4-(trifluoromethyl)phenyl)propylamino)-5-(isoquinolin-6-yl)thiazol-4-yl)(pyrrolidin-1-yl)methanone] | 1000 to 10000
COc1cc(C[C@H](N)CNc2ncc(-c3ccc4[nH]c(=O)oc4c3)s2)ccc1C(F)(F)F [Example 207, 6-(2-((S)-2-amino-3-(3-methoxy-4-(trifluoromethyl)phenyl)propylamino)thiazol-5-yl)benzo[d]oxazol-2(3H)-one] | < 50
NC(CNc1ncc(-c2ccc3c(c2)CC(=O)N3)s1)Cc1ccc(C(F)(F)F)cc1F (stereo not shown) [Example 176, 5-(2-(-2-amino-3-(2-fluoro-4-(trifluoromethyl)phenyl)propylamino)thiazol-5-yl)indolin-2-one] | 50 to 1000
Cc1n[nH]c2ccc(-c3sc(NC[C@@H](N)Cc4ccc(C(F)(F)F)cc4)nc3CO)cc12 [Example 11, (2-((S)-2-amino-3-(4-(trifluoromethyl)phenyl)propylamino)-5-(3-methyl-1H-indazol-5-yl)thiazol-4-yl)methanol] | < 50
N[C@H](CNc1ncc(-c2nc3ccncc3s2)s1)Cc1cccc(C(F)(F)F)c1 [Example 31, N—((S)-2-amino-3-(3-(trifluoromethyl)phenyl)propyl)-5-(thiazolo[5,4-c]pyridin-2-yl)thiazol-2-amine] | 1000 to 10000
Cn1c(=O)[nH]c2ccc(-c3cnc(NCC(N)Cc4ccc(C(F)(F)F)c(F)c4F)s3)cc21 (stereo not shown) [Example 191, 6-(2-(2-amino-3-(2,3-difluoro-4-(trifluoromethyl)phenyl)propylamino)thiazol-5-yl)-1-methyl-1H-benzo[d]imidazol-2(3H)-one] | 50 to 1000
N[C@H](CNc1ncc(-c2nc3ccncc3s2)s1)Cc1ccc(C(F)(F)F)cc1 [Example 32, N—((S)-2-amino-3-(4-(trifluoromethyl)phenyl)propyl)-5-(thiazolo[5,4-c]pyridin-2-yl)thiazol-2-amine] | < 50
N[C@H](CNc1nc(C(F)(F)CO)c(-c2ccc3c(c2)CC(=O)N3)s1)Cc1ccc(C(F)(F)F)cc1 [Example 133, 5-(2-((S)-2-Amino-3-(4-(trifluoromethyl)phenyl)propylamino)-4-(1,1-difluoro-2-hydroxyethyl)thiazol-5-yl)indolin-2-one] | 1000 to 10000
N#Cc1nc(NC[C@@H](N)Cc2ccc(C(F)(F)F)cc2)sc1-c1ccc2cnccc2c1 [Example 63, 2-((S)-2-amino-3-(4-(trifluoromethyl)phenyl)propylamino)-5-(isoquinolin-6-yl)thiazole-4-carbonitrile] | 1000 to 10000
C[C@@H](c1ccc(C(F)(F)F)cc1)[C@H](N)CNc1ncc(-c2ccc3c(c2)C2(CC2)C(=O)N3)s1 [Example 200, 5′-(2-((2S,3S)-2-amino-3-(4-(trifluoromethyl)phenyl)butylamino)thiazol-5-yl)spiro[cyclopropane-1,3′-indol]-2′(1′H)-one] | 50 to 1000
N[C@H](CNc1ncc(-c2ccc3c(c2)CC(=O)N3)s1)Cc1ccc(C(F)(F)F)c(F)c1 [Example 185, 5-(2-((S)-2-amino-3-(3-fluoro-4-(trifluoromethyl)phenyl)propylamino)thiazol-5-yl)indolin-2-one] | < 50
N[C@H](CNc1ncc(-c2ccc3cnccc3c2)s1)Cc1cccc(Cl)c1 [Example 66, N—((S)-2-amino-3-(3-chlorophenyl)propyl)-5-(isoquinolin-6-yl)thiazol-2-amine] | < 50
COCc1nc(NC[C@@H](N)Cc2ccc(C(F)(F)F)cc2)sc1-c1ccc2[nH]nc(C)c2c1 [Example 15, N—((S)-2-amino-3-(4-(trifluoromethyl)phenyl)propyl)-4-(methoxymethyl)-5-(3-methyl-1H-indazol-5-yl)thiazol-2-amine] | 50 to 1000
N[C@H](CNc1ncc(-c2ccc3c(c2)CC(=O)N3)s1)Cc1ccc(C(F)(F)F)nc1 [Example 171, 5-(2-((S)-2-amino-3-(6-(trifluoromethyl)pyridine-3-yl)propylamino)thiazol-5-yl)indolin-2-one] | < 50
C[C@@H](c1ccccc1)[C@H](N)CNc1ncc(-c2ccc3c(c2)CC(=O)N3)s1 [Example 90, 5-(2-((2S,3S)-2-Amino-3-phenylbutylamino)thiazol-5-yl)indolin-2-one] | 1000 to 10000
N[C@H](CNc1nc(C#CC2(O)CCC2)c(-c2ccc3cnccc3c2)s1)Cc1ccc(C(F)(F)F)cc1 [Example 142, 1-(2-(2-((S)-2-amino-3-(4-(trifluoromethyl)phenyl)propylamino)-5-(isoquinolin-6-yl)thiazol-4-yl)ethynyl)cyclobutanol] | 50 to 1000
N[C@H](CNc1ncc(-c2ccc3[nH]c(=O)oc3c2)s1)Cc1ccc(C(F)(F)F)nc1 [Example 172, 6-(2-((S)-2-amino-3-(6-(trifluoromethyl)pyridine-3-yl)propylamino)thiazol-5-yl)benzo[d]oxazol-2(3H)-one] | < 50
